We go through one molecule from patent US12514797B2, “Cosmetic and dermatological compositions” (Northeastern University, priority 2017, dated 2026).

Data set [1] is described as follows: pH-dependent stability (MSMS analysis of pigment hydrolysis). The format is physicochemical. Particulars: pH values approached and exceeded 10.00, mass addition of water.
A short description of data set [2]: UV absorbance in vitro, SPF calculated using the Mansur equation, comparison to known UV-filters. The class given is physicochemical. The protocol:
FIG. 12 provides absorbance curves (see top graph) and corresponding comparator values (see table) of Xa to known UV-filters, avo- and oxy-benzone. […] X−1 represents synthetic Xa; X−2 represents Xa extracted from squid at 0.10 mM. SPF was calculated using the Mansur equation and critical wavelength was determined as the wavelength at which 90% of the absorbance curve resides.
Xa is the simplest and most common ommochrome and is formed (along with the reduced dihydro-xanthommatin and ommatin subclasses) via the condensation of two hydroxykynurenine residues in the kynurenine pathway of tryptophan metabolism. Once synthesized, Xa is stabilized within granules (diameter 530 nm) that are resistant to photodegradation. An added predicted functionality, although largely unexplored in vitro and in vivo, is that Xa behaves as a free-radical scavenger. Together, with the data presented in FIG. 12 showing that Xa absorbs UV radiation ˜2× higher than current chemical filters at the same concentrations, it is expected that Xa and Xa-based materials can function as UV-filters that can not only protect against solar irradiation but can also be used in preventative skin care as free-radical scavengers (while maintaining biocompatibility).
(§1) Given its propensity to form granules in natural systems (FIG. 3, left) and its impressive UV-absorptive properties in vitro (FIG. 12, see Table 2 below), Xa was encapsulated within biodegradable particles designed to improve its durability and use as a topical UV-filter. The complex refractive index (RI) of Xa was experimentally determined as 1.92+0.014i. This uniquely high RI is important, especially when considering the design criteria of the particle based UV-filters. For instance, when assembled into nano- and micro-particles, Xa will scatter more light than it absorbs at diameters >200 nm, and this difference is maximized at sizes >[…] (FIG. 13). Because light scattering is an important feature for heat dissipation and reflection for coatings, it can be preferable to design particles with diameters ranging from 1-10 μm.

Data set [3] in a line: Spectrophotometric pH titration, experimental determination of pKa. The format is physicochemical. The settings on record: water titrated with 0.05 M NaOH, extrapolated from absorbance intensity at 430 and 360 nm as a function of pH. How it is done:
The two observed pKas are indicated by the dashed lines at 5.50 and 8.40.
The purified xanthommatin (˜5 mg) was suspended in water (5.00 mL) and titrated to a starting pH of 2.08. The solution was then titrated with 0.05 M NaOH until the pH reached 10.37. During each point in the titration, the solution pH and absorbance was determined. pH levels were measured using a Fisher Scientific Accumet AP 110 pH meter (Fisher Scientific, Waltham, MA).
The pH-dependent color change of a […] solution of xanthommatin was monitored over a pH range of 1.90-10.30 using spectrophotometry. Three distinct patterns were associated with the increasing pH (see FIG. 8). At pH<3.00, the pigment was pale-yellow with a λmax˜430 nm. […] To determine whether the observed intensity in color was reversible at the lower pH values, the pH of xanthommatin was next cycled between acidic (2.00-3.00) and neutral (pH 6.00-8.00) conditions six times, and the absorbance intensity at 430 nm was followed. […]
If the presence or absence of protons were indeed influencing the resultant visible color, then individual acid dissociation constants (Ka) could be experimentally extrapolated and used to follow compositional changes in the biochrome as a function of pH. To test this, it was determined how absorbance intensities varied as a function of pH at both 430 and 360 nm (see FIG. 9). […]

Data set [4] in a line: Electrochromic device (Xa in PEDOT:PSS) redox-dependent color switch, CIE 1931 chromaticity and transmittance. The format is physicochemical. Particulars: darkest yellow (O3) to red (R3) films, 555 nm. The source says:
Even though its exact mechanism for electron transfer remains unknown, phenoxazone-based materials are believed to undergo a reversible reduction to dihydroxanthommatin, gaining two electrons and two protons during its redox-dependent color change. These principles are used to show how the pigment stabilized in a polymer (PEDOT-PSS) matrix is capable of switching color in response to different applied voltages. When a double potential step from +1.5 V to −1.5 V vs ground was applied to the device, a redox-dependent color switch was observed (FIG. 11). The current required to switch from one colored state to another was plotted as a function of time upon application of a square-wave potential (FIG. 10). […] In each case, the switching time for each step was calculated as the time required to reach 95% of the maximum current.
The spectral tunability of these materials was also investigated by varying the ratio between PEDOT:PSS and pigment (FIG. 11). Different concentrations of xanthommatin (from 0.04 mg/ml to 0.16 mg/ml) were used while the amount of PEDOT:PSS remained constant. The color of each film activated at the different redox states was measured using the International Commission of Illumination (CIE) 1931 xy-chromaticity diagram. […]
Because the human eye is most sensitive at 555 nm, all transmittance values were calculated at this wavelength without any background correction.

Data set [5] can be described thus: Hydroxyl radical antioxidant capacity (HORAC) activity assay. The class given is biochemical. The settings on record: compared to commercially available antioxidant standard gallic acid. The source says:
FIG. 14 illustrates the hydroxyl radical antioxidant capacity (HORAC) activity assay activity of Xa. The HORAC assay was used to evaluate the application of Xa as a natural antioxidant. Xa consumes hydroxyl radicals produced by the activation of the fenton reagent preventing the degradation of the fluorescein probe.
Oxygen derived species such as superoxide radical, hydrogen peroxide, singlet oxygen and hydroxyl radical are well known to be cytotoxic and have been implicated in the onset of a wide array of human diseases. These “compounds” are often referred to as reactive oxygen species (ROS). ROS normally exist in all aerobic cells in balance with biochemical antioxidants; however, this critical equilibrium can be disrupted due to excess ROS or antioxidant depletion and can result in oxidative stress. Antioxidants are used in cosmetics, pharmaceuticals, food and on the skin directly minimize the undesirable reactions resulting from oxidation caused by ROS. Commonly used antioxidants typically contain a combination of phenol, benzene and alkene functional groups. These key features work to inhibit the propagation of ROS through resonance stabilization of free radicals. […] The ability of particles and pigments (free and encapsulated) to […] ROS are measured using the colorimetric hydroxyl radical antioxidant capacity (HORAC) assay (FIG. 14). […]

Data set [6] can be described thus: Complex refractive index determination. The class given is physicochemical.
Text: as §1

A word on the pKa: it is the negative logarithm of the acid dissociation constant. `NC(CC(=O)c1cccc2oc3cc(=O)c4[nH]c(C(=O)O)cc(=O)c4c-3nc12)C(=O)O` (stereo not shown) [Xa, xanthommatin]: the pigment hydrolysis result in data set [1] is “pigment hydrolysis occurred”. The results for the SPF in vitro in data set [2] (0.062 mM), in data set [2] (0.125 mM) and in data set [2] (0.250 mM) were 3, 14 and 38, respectively. Besides, the “UV radiation absorption relative to current chemical filters” value in data set [2] (same concentrations, FIG. 12 comparators avo- and oxy-benzone) was around 2 ×. The pKa in data set [3] was 5.5. Further, the “optical contrast (ΔT %)” value in data set [4] is recorded as 25.4%. Further, the values for the HORAC activity entry in data set [5] and in data set [5] (listed as Xanthommatin) were “enhanced activity in comparison to commercially available standard gallic acid” and “enhanced activity when compared to commercially available antioxidant gallic acid”, respectively. Also, the “complex refractive index (RI)” value in data set [6] is given as 1.92+0.014i.
